Assay results reported in patent US20210052703A1 (SHANGHAI BENEMAE PHARMACEUTICAL CORPORATION, priority 2018, published 2021).
Where two headings read alike, the source gives them in different places.

Key:
[1] = test system: type 2 diabetic patients; experiment: trial 5A: Beinaglutide with glipizide in type 2 diabetic patients; type: in vivo, human
[2] = test system: mice; experiment: blood sugar increase induced by alloxan and streptozotocin in mice; type: in vivo
[3] = pharmacokinetic studies in monkey models; settings: in vivo, sc
[4] = test system: rabbits with normal glycemic index; experiment: glucose-induced high blood sugar in rabbits; type: in vivo
[5] = trials 5A and 5B: time course of action and adverse events; type: in vivo, human
[6] = test system: animals having a normal level of blood sugar; experiment: blood sugar and insulin in animals having a normal level of blood sugar; type: in vivo
[7] = test system: mice with normal glycemic index; experiment: glucose-induced high blood sugar in mice; type: in vivo
[8] = test system: diet-induced obesity cynomolgus monkeys; experiment: body weight, food intake and body composition in diet-induced obesity cynomolgus monkeys (Example 4)
Protocol: (§1) The monkeys are divided into two groups based on age, sex, body weight and BMI, each group having one male and one female.
(§2) The study included three periods: baseline period (the first week), treatment period (the second week through the seventh week), and recovering period (the eighth week). After the monkeys adapted to the meal time for at least 30 days, the body weight, BMI, and body composition of each animal was determined at day 7 of the first baseline period.
(§3) Group 2 animals were administered three times a day at a dose of 10 μg/kg each time during week 2, three times a day at a dose of 20 μg/kg each time during week 3, and three times a day at a dose of 40 μg/kg each time during the first three days of week 4.
(§4) The dose for Group 1 animals during week 5 through week 7 was determined based on the dose given to Group 2 animals during week 2 through week 4. Group 1 animals were administered twice a day at a dose of 10 μg/kg each time during week 5, twice a day at a dose of 20 μg/kg each time during week 6, and twice a day at a dose of 20 μg/kg each time during week 7 (same dose as week 6). During the 6-week treatment period, the body weight and crown-rump height of each animal were measured at the end of each week. The body fat content was measured at week 4 and week 7. No administration was given during week 8.
(§5) The body weight was measured once a week, and crown-rump height was measured at the end of week 1, week 4, and week 7 when Dual-Energy X-ray Absorptiometry (DEXA) scan was taken. The animals were anesthetized by intramuscular administration of 0.02 m/kg Shumianning. While resting on one side, the animals were measured from the top of the head to the bottom of tail as the crown-rump height. BMI was calculated using the formula: BMI=body weight (kg)/crown-rump height (m)^2. DEXA scan was conducted while the animals were anesthetized and body compositions were analyzed based on DEXA scan.

[9] = as above; settings: both, cynomolgus monkey, in vivo, sc
Protocol: as §1, §2, §3, §4, §5

[10] = test system: male diet induced obesity (DIO) mice; settings: for % of Gastric Remains / Gross Weight of Stomach / Propelling Distance of Carbon Powder / Propelling Rate of Carbon Powder: X ± SE
Protocol: Five minutes after subcutaneous injection, gavage was conducted using 5% carbon powder suspension (in 2% carboxymethylcellulose solution) at 1.5 ml/100 g body weight. […] The stomach was wiped dry with filter paper and weighed for the gross weight of the stomach. Then the content of the stomach was removed and the stomach was weighed for the net weight. The respective distance from the pyloric sphincter to the front of carbon powder suspension and to the distal end of the large intestine was measured. • propelling distance of carbon powder in the intestine (cm)=distance from pylorus to the proximal end of carbon powder; • mass of carbon powder gavaged=concentration of carbon powder suspension×volume; • propelling rate of carbon powder (%)=propelling distance of carbon powder in the intestine (cm)/entire length of intestine (cm)×100%; • rate of gastric remains (%)=(gross weight of stomach−net weight of stomach)/mass of carbon powder gavaged×100%.
The animals were fasted 29-33 hours before injection, and the animals were not given any water 5-7 hours before injection. Injections were made by subcutaneous administration to the neck, at 0.1 ml/100 g body weight.

[11] = test system: rats; experiment: blood sugar increase induced by alloxan and streptozotocin in rats; type: in vivo
[12] = test system: patients with type 2 diabetes; experiment: trial 5C: Beinaglutide with metformin, multicenter, type 2 diabetes; type: in vivo, human
Excerpt: Note: Covariance analysis was used for comparison between groups. The dependent variable was the change in body weight relative to baseline, and the covariate was baseline. Body weight change from baseline=post-treatment−baseline. Data from 5C test data.

[13] = Test group (Beinaglutide+metformin), 84 days (12 weeks) from baseline
[14] = Test group, 248 subjects, 84 days from baseline
[15] = Test group, 84 days from baseline

CC[C@H](C)[C@H](NC(=O)[C@H](Cc1ccccc1)NC(=O)[C@H](CCC(=O)O)NC(=O)[C@H](CCCCN)NC(=O)[C@H](C)NC(=O)[C@H](C)NC(=O)[C@H](CCC(N)=O)NC(=O)CNC(=O)[C@H](CCC(=O)O)NC(=O)[C@H](CC(C)C)NC(=O)[C@H](Cc1ccc(O)cc1)NC(=O)[C@H](CO)NC(=O)[C@H](CO)NC(=O)[C@@H](NC(=O)[C@H](CC(=O)O)NC(=O)[C@H](CO)NC(=O)[C@@H](NC(=O)[C@H](Cc1ccccc1)NC(=O)[C@@H](NC(=O)CNC(=O)[C@H](CCC(=O)O)NC(=O)[C@H](C)NC(=O)[C@@H](N)Cc1cnc[nH]1)[C@@H](C)O)[C@@H](C)O)C(C)C)C(=O)N[C@@H](C)C(=O)N[C@@H](Cc1c[nH]c2ccccc12)C(=O)N[C@@H](CC(C)C)C(=O)N[C@H](C(=O)N[C@@H](CCCCN)C(=O)NCC(=O)N[C@@H](CCCNC(=N)N)C(=O)O)C(C)C [Beinaglutide]
BMI ([1]; 0.1 mg three times a day with glipizide, treatment for 2 weeks, FAS n = 24, before treatment 25.51 ± 2.59): 25.53 ± 2.63 kg/m^2 | BMI ([1]; 0.1 mg three times a day with glipizide, treatment for 4 weeks, FAS n = 24, before treatment 25.51 ± 2.59): 25.40 ± 2.64 kg/m^2 | BMI ([1]; 0.1 mg three times a day with glipizide, treatment for 8 weeks, FAS n = 24, before treatment 25.51 ± 2.59): 25.25 ± 2.57 kg/m^2 | BMI ([1]; 0.1 mg three times a day with glipizide, treatment for 12 weeks, FAS n = 24, before treatment 25.51 ± 2.59): 25.20 ± 2.60 kg/m^2 | BMI ([1]; 0.15 mg three times a day with glipizide, treatment for 2 weeks, FAS n = 24, before treatment 25.66 ± 2.64): 25.63 ± 2.57 kg/m^2 | BMI ([1]; 0.15 mg three times a day with glipizide, treatment for 4 weeks, FAS n = 24, before treatment 25.66 ± 2.64): 25.45 ± 2.63 kg/m^2 | BMI ([1]; 0.15 mg three times a day with glipizide, treatment for 8 weeks, FAS n = 24, before treatment 25.66 ± 2.64): 25.19 ± 2.48 kg/m^2 | BMI ([1]; 0.15 mg three times a day with glipizide, treatment for 12 weeks, FAS n = 24, before treatment 25.66 ± 2.64): 25.11 ± 2.60 kg/m^2 | BMI ([1]; 0.2 mg three times a day with glipizide, treatment for 2 weeks, FAS n = 23, before treatment 26.71 ± 4.17): 26.44 ± 4.14 kg/m^2 | BMI ([1]; 0.2 mg three times a day with glipizide, treatment for 4 weeks, FAS n = 23, before treatment 26.71 ± 4.17): 26.52 ± 3.95 kg/m^2 | BMI ([1]; 0.2 mg three times a day with glipizide, treatment for 8 weeks, FAS n = 23, before treatment 26.71 ± 4.17): 26.09 ± 4.04 kg/m^2 | BMI ([1]; 0.2 mg three times a day with glipizide, treatment for 12 weeks, FAS n = 23, before treatment 26.71 ± 4.17): 25.92 ± 3.95 kg/m^2 | effect on increase of blood sugar induced by alloxan and streptozotocin [2]: reduce the increase of blood sugar induced by alloxan and streptozotocin | half-life [3]: 15 to 30 min | effect on glucose-induced high blood sugar [4]: lower glucose-induced high blood sugar | adverse events ([5]; Beinaglutide clinical trials): mild to moderate nausea and vomiting | peak time ([5]; after administration (injection), type 2 diabetic patients): 20 min | half-life ([5]; human, in vivo, other: injection, type 2 diabetic patients, read-out: half-life (duration of action)): ~15 min | effect on blood sugar and blood insulin level [6]: neither decreased blood sugar nor increased blood insulin level | effect on glucose-induced high blood sugar [7]: lower glucose-induced high blood sugar | body fat content ([8]; Group 1, end of week 7, compared to baseline): decrease in body fat content | body fat content ([8]; Group 2, end of week 4, compared to baseline): significant decrease in body fat content | signs of anorexia ([8]; Group 2, 40 μg/kg three times a day, first three days of week 4): severe signs of anorexia | Body Weight ([8]; animal F1 (female, Group 1), Week 5, 10 μg/kg twice a day, Week 4 before treatment 5.96): 5.92 kg | BMI ([8]; animal F1, Week 5, 10 μg/kg twice a day, Week 4 before treatment 41): 39 kg/m^2 | Body Weight ([8]; animal F1, Week 6, 20 μg/kg twice a day, Week 4 before treatment 5.96): 5.94 kg | BMI ([8]; animal F1, Week 6, 20 μg/kg twice a day, Week 4 before treatment 41): 39 kg/m^2 | Body Weight ([8]; animal F1, Week 7, 20 μg/kg twice a day, Week 4 before treatment 5.96): 5.84 kg | BMI ([8]; animal F1, Week 7, 20 μg/kg twice a day, Week 4 before treatment 41): 38 kg/m^2 | Fat Content (DEXA) ([8]; animal F1, Week 7, after Beinaglutide weeks 5-7, Week 4 1.98): 1.81 kg | Lean Mass (DEXA) ([8]; animal F1, Week 7, after Beinaglutide weeks 5-7, Week 4 4.09): 3.98 kg | Body Fat Percentage ([8]; animal F1, Week 7, after Beinaglutide weeks 5-7, Week 4 33.2): 31.0% | Body Weight ([8]; animal F2 (female, Group 2), Week 2, 10 μg/kg three times a day, Week 1 baseline 6.18): 5.96 kg | Body Weight ([8]; animal F2, Week 3, 20 μg/kg three times a day, Week 1 baseline 6.18): 5.76 kg | Body Weight ([8]; animal F2, Week 4, 40/20 μg/kg three times a day, Week 1 baseline 6.18): 5.56 kg | BMI ([8]; animal F2, Week 4, 40/20 μg/kg three times a day, Week 1 baseline 41): 37 kg/m^2 | Fat Content (DEXA) ([8]; animal F2, Week 4, after Beinaglutide weeks 2-4, baseline 2.97): 2.71 kg | Lean Mass (DEXA) ([8]; animal F2, Week 4, after Beinaglutide weeks 2-4, baseline 3.17): 2.89 kg | Body Fat Percentage ([8]; animal F2, Week 4, after Beinaglutide weeks 2-4, baseline 48.1): 48.7% | Body Weight ([8]; animal M1 (male, Group 1), Week 5, 10 μg/kg twice a day, Week 4 before treatment 11.20): 10.90 kg | BMI ([8]; animal M1, Week 5, 10 μg/kg twice a day, Week 4 before treatment 51): 49 kg/m^2 | Body Weight ([8]; animal M1, Week 6, 20 μg/kg twice a day, Week 4 before treatment 11.20): 10.44 kg | BMI ([8]; animal M1, Week 6, 20 μg/kg twice a day, Week 4 before treatment 51): 47 kg/m^2 | Body Weight ([8]; animal M1, Week 7, 20 μg/kg twice a day, Week 4 before treatment 11.20): 10.26 kg | BMI ([8]; animal M1, Week 7, 20 μg/kg twice a day, Week 4 before treatment 51): 46 kg/m^2 | Fat Content (DEXA) ([8]; animal M1, Week 7, after Beinaglutide weeks 5-7, Week 4 3.66): 3.15 kg | Lean Mass (DEXA) ([8]; animal M1, Week 7, after Beinaglutide weeks 5-7, Week 4 7.35): 6.92 kg | Body Fat Percentage ([8]; animal M1, Week 7, after Beinaglutide weeks 5-7, Week 4 32.7): 30.7% | Body Weight ([8]; animal M2 (male, Group 2), Week 2, 10 μg/kg three times a day, Week 1 baseline 10.52): 10.30 kg | BMI ([8]; animal M2, Week 2, 10 μg/kg three times a day, Week 1 baseline 52): 51 kg/m^2 | Body Weight ([8]; animal M2, Week 3, 20 μg/kg three times a day, Week 1 baseline 10.52): 10.00 kg | Body Weight ([8]; animal M2, Week 4, 40/20 μg/kg three times a day, Week 1 baseline 10.52): 9.70 kg | BMI ([8]; animal M2, Week 4, 40/20 μg/kg three times a day, Week 1 baseline 52): 48 kg/m^2 | Fat Content (DEXA) ([8]; animal M2, Week 4, after Beinaglutide weeks 2-4, baseline 3.49): 2.88 kg | Lean Mass (DEXA) ([8]; animal M2, Week 4, after Beinaglutide weeks 2-4, baseline 6.88): 6.59 kg | Body Fat Percentage ([8]; animal M2, Week 4, after Beinaglutide weeks 2-4, baseline 33.2): 29.7% | body weight after three-week treatment ([8]; compared to baseline period, n=4, p<0.05): significant weight loss | weekly food/calories intake ([8]; during Beinaglutide treatment period compared to before treatment, p<0.05): significantly decreased | BMI after three weeks of treatment ([8]; two groups of animals): decreased | MTD at 504 h [9]: 0.02 to 0.04 mg/kg | human dose corresponding to effective dose ([10]; from DIO mice 15 μg/kg): 0.12 mg/day | effective dose (inhibition of stomach emptying), as low as ([10]; male DIO mice): 0.015 mg/kg | % of Gastric Remains ([10]; male DIO mice, 15 μg/kg): 58.92 ± 3.39% | Gross Weight of Stomach ([10]; male DIO mice, 15 μg/kg): 0.49 ± 0.02 g | Propelling Distance of Carbon Powder ([10]; male DIO mice, 15 μg/kg): 20.50 ± 1.89 cm | Propelling Rate of Carbon Powder ([10]; male DIO mice, 15 μg/kg): 47.34 ± 4.63% | % of Gastric Remains ([10]; male DIO mice, 20 μg/kg): 63.46 ± 9.45% | Gross Weight of Stomach ([10]; male DIO mice, 20 μg/kg): 0.50 ± 0.04 g | Propelling Distance of Carbon Powder ([10]; male DIO mice, 20 μg/kg): 14.21 ± 2.59 cm | Propelling Rate of Carbon Powder ([10]; male DIO mice, 20 μg/kg): 34.86 ± 6.72% | % of Gastric Remains ([10]; male DIO mice, 25 μg/kg): 62.69 ± 7.26% | Gross Weight of Stomach ([10]; male DIO mice, 25 μg/kg): 0.53 ± 0.03 g | Propelling Distance of Carbon Powder ([10]; male DIO mice, 25 μg/kg): 15.00 ± 2.45 cm | Propelling Rate of Carbon Powder ([10]; male DIO mice, 25 μg/kg): 35.25 ± 5.72% | % of Gastric Remains ([10]; male DIO mice, 50 μg/kg): 70.86 ± 7.41% | Gross Weight of Stomach ([10]; male DIO mice, 50 μg/kg): 0.55 ± 0.02 g | Propelling Distance of Carbon Powder ([10]; male DIO mice, 50 μg/kg): 10.00 ± 1.04 cm | Propelling Rate of Carbon Powder ([10]; male DIO mice, 50 μg/kg): 23.80 ± 2.41% | % of Gastric Remains ([10]; male DIO mice, 75 μg/kg): 78.34 ± 5.75% | Gross Weight of Stomach ([10]; male DIO mice, 75 μg/kg): 0.57 ± 0.03 g | Propelling Distance of Carbon Powder ([10]; male DIO mice, 75 μg/kg): 9.29 ± 1.23 cm | Propelling Rate of Carbon Powder ([10]; male DIO mice, 75 μg/kg): 21.51 ± 2.63% | % of Gastric Remains ([10]; male DIO mice, 100 μg/kg): 74.37 ± 6.06% | Gross Weight of Stomach ([10]; male DIO mice, 100 μg/kg): 0.56 ± 0.02 g | Propelling Distance of Carbon Powder ([10]; male DIO mice, 100 μg/kg): 9.00 ± 1.12 cm | Propelling Rate of Carbon Powder ([10]; male DIO mice, 100 μg/kg): 20.87 ± 2.19% | effect on increase of blood sugar induced by alloxan and streptozotocin [11]: reduce the increase of blood sugar induced by alloxan and streptozotocin | Week 12 BMI ([12]; 0.2 mg three times a day with metformin, Baseline BMI 25.81): 25.09 kg/m^2 | BMI Change ([12]; 0.2 mg three times a day with metformin, baseline to week 12, 0 mg group −0.40): −0.72 | difference Test-Control group in body weight change, Corrected mean ([12]; 84 days after medication, covariance analysis, P 0.0075): −0.82 | change in body weight from baseline, median ([12]; Test group (0.2 mg three times a day + metformin), overweight and obese patients, ITT, 84 days after medication): -2.00 kg | change in body weight from baseline, Mean ± standard deviation ([12]; Test group (0.2 mg three times a day + metformin), overweight and obese patients, ITT, 84 days after medication, 248 subjects): -2.22 ± 2.55 kg | proportion of subjects with Weight loss ≥ 3% [12, 13]: (40.32) % | proportion of subjects with weight loss ≥5% [12, 13]: (20.97) % | number of subjects with Weight loss < 3% [12, 14]: 148 | number of subjects with Weight loss < 5% [12, 14]: 196 | number of subjects with Weight loss ≥ 3% [12, 14]: 100 | number of subjects with Weight loss ≥ 5% [12, 14]: 52 | proportion of subjects with Weight loss < 3% [12, 15]: (59.68) % | proportion of subjects with Weight loss < 5% [12, 15]: (79.03) %
